In ChEMBL document CHEMBL5233283, “Indole derivatives as tubulin polymerization inhibitors for the development of promising anticancer agents” (Bioorg Med Chem, 2021):

Key:
B16-F10 = experiment: Cytotoxicity against mouse B16-F10 cells assessed as cell growth inhibition; assay type: functional, cell-based
MCF7 = experiment: Cytotoxicity against human MCF7 cells assessed as inhibition of cell growth; assay type: functional, cell-based
HeLa = experiment: Cytotoxicity against human HeLa cells assessed as inhibition of cell growth; assay type: functional, cell-based
A549 = experiment: cells; details: Homo sapiens
Description: Cytotoxicity against human A549 cells assessed as inhibition of cell growth

HepG2 = experiment: Cytotoxicity against human HepG2 cells assessed as inhibition of cell growth; assay type: functional, cell-based
HT-29 = experiment: Cytotoxicity against human HT-29 cells assessed as inhibition of cell growth; assay type: functional, cell-based
HCT-116 = experiment: Cytotoxicity against human HCT-116 cells assessed as inhibition of cell growth; assay type: functional, cell-based
KB = experiment: Cytotoxicity against human KB cells assessed as cell growth inhibition; assay type: functional, cell-based
NCI-H460 = experiment: Cytotoxicity against human NCI-H460 cells assessed as cell growth inhibition; assay type: functional, cell-based
MKN-45 = experiment: Cytotoxicity against human MKN-45 cells assessed as cell growth inhibition; assay type: functional, cell-based
[1] = Cytotoxicity against human […] cells assessed as inhibition of cell growth; assay type: functional, cell-based
PA-1 = experiment: Cytotoxicity against human PA-1 cells assessed as inhibition of cell growth; assay type: functional, cell-based
MDA-MB-231 = experiment: Cytotoxicity against human MDA-MB-231 cells assessed as inhibition of cell growth; assay type: functional, cell-based
AGS = experiment: Cytotoxicity against human AGS cells assessed as inhibition of cell growth; assay type: functional, cell-based
NCI/ADR-RES = experiment: Cytotoxicity against human NCI-ADR-RES cells assessed as inhibition of cell growth; assay type: functional, cell-based
[2] = Cytotoxicity against human CL1-5 cells assessed as inhibition of cell growth; assay type: functional, cell-based
PC-3 = experiment: Cytotoxicity against human PC-3 cells assessed as inhibition of cell growth; assay type: functional, cell-based
Ishikawa = experiment: Cytotoxicity against human Ishikawa cells assessed as inhibition of cell growth; assay type: functional, cell-based
[3] = Cytotoxicity against human Neural progenitor cells assessed as cell growth inhibition; assay type: functional, cell-based
SH-SY5Y = experiment: Cytotoxicity against human SH-SY5Y cells assessed as cell growth inhibition; assay type: functional, cell-based
RKO = experiment: Cytotoxicity against human RKO cells assessed as inhibition of cell growth; assay type: functional, cell-based
[4] = Cytotoxicity against human SCC-29B cells assessed as inhibition of cell growth; assay type: functional

| IC50 (A549) [µM] | Structure (SMILES) | IC50 (MCF7) [µM] | IC50 (HeLa) [µM] | IC50 (HepG2) [µM] | other results |
| --- | --- | --- | --- | --- | --- |
| – | O=C(CC(c1ccc(F)cc1)c1c(-c2ccccc2)[nH]c2ccccc12)c1ccccc1 (stereo unspecified) | 10 | – | – | IC50 (B16-F10): 10 µM |
| 0.3 | COc1cc(CSc2nnc(-c3cn(C)c4ccccc34)n2-c2ccccc2)cc(OC)c1OC | 0.38 | 0.15 | 0.3 | – |
| – | COC(=O)c1[nH]c2cc(OC)ccc2c1/C=C/C(=O)c1cc(OC)c(OC)c(OC)c1 | 0.17 | 0.37 | – | IC50 (HT-29): 0.16 µM |
| – | COc1ccc(C(=O)/C=C/c2ccc3c(ccn3C)c2)c2ccccc12 | 0.82 | – | 0.65 | IC50 (HCT-116): 1.13 µM |
| – | O=C(CC(c1ccccc1)c1c(-c2ccccc2)[nH]c2ccccc12)c1ccc(F)cc1 (stereo unspecified) | 10 | – | – | IC50 (B16-F10): 10 µM |
| – | O=C(O)c1cccc(-n2cc(CSc3c[nH]c4ccccc34)nn2)c1 | 3.52 | – | – | – |
| – | COc1ccc(-n2ccc3cc(OC)c(OC)c(OC)c32)cc1O | – | – | – | IC50 (KB): 0.0137 µM; IC50 (NCI-H460): 0.0129 µM; IC50 (MKN-45): 0.0111 µM; IC50 (HT-29): 0.0102 µM |
| 0.035 | COc1cc(/C=C/c2ncc([N+](=O)[O-])n2CCOC(=O)c2c[nH]c3ccccc23)cc(OC)c1OC | 0.03 | – | 0.04 | – |
| – | COC(=O)c1[nH]c2ccc(OC)cc2c1Nc1cc(OC)c(OC)c(OC)c1 | 0.11 | 0.11 | – | IC50 (HT-29): 0.11 µM |
| 0.57 | N#Cc1c(-c2ccc(F)cc2Cl)cc(-c2c[nH]c3ccccc23)n2ccnc12 | – | – | – | IC50 (NCI-H460): 0.05 µM; IC50 (MKN-45): 0.14 µM; IC50 (HT-29): 0.02 µM |
| – | O=C(N/N=C/c1c[nH]c2ccccc12)c1c[nH]c2ccccc12 | 5.25 | 1.5 | 29.7 | IC50 (PA-1): 24.7 µM; IC50 (MDA-MB-231): 8 µM |
| – | N#Cc1ccc(/C=N/NC(=O)c2[nH]c3ccc(Cl)cc3c2-c2ccccc2)cc1 | 0.17 | – | – | – |
| – | COC(=O)c1c(Nc2cc(OC)c(OC)c(OC)c2)c2ccc(OC)cc2n1C | 0.11 | 0.11 | – | IC50 (HT-29): 0.11 µM |
| 1.43 | COc1ccc(S(=O)(=O)Nc2cccc3cc(-c4ccccc4)[nH]c23)cc1 | – | 0.2 | – | IC50 (AGS): 0.25 µM; IC50 (NCI/ADR-RES): 0.15 µM; IC50 [2]: 0.45 µM; IC50 (PC-3): 0.11 µM; IC50 (HT-29): 0.13 µM |
| – | O=C(CC#Cc1ccccc1)Oc1ccc2[nH]ccc2c1 | 3.8 | 3.2 | – | IC50 (Ishikawa): 10.1 µM; IC50 (MDA-MB-231): 9.9 µM |
| – | Oc1cccc(-n2cc(CSc3c[nH]c4ccccc34)nn2)c1 | 2.37 | – | – | – |
| 4.97 | CC(=O)c1ccc(C2=C(c3c(C)[nH]c4ccccc34)C(=O)N(C)C2=O)cc1 | – | – | – | IC50 [3]: 1.31 µM; IC50 (SH-SY5Y): 8.48 µM |
| – | COc1ccc(C(=O)/C=C/c2cn(C)c3ccc(C(=O)c4cc(OC)c(OC)c(OC)c4)cc23)cc1OC | – | – | – | GI50 [4]: 0.96 µM |
| – | O=C(N/N=C/c1ccc(C(F)(F)F)cc1)c1[nH]c2ccc(Cl)cc2c1-c1ccccc1 | 0.42 | – | – | – |
| – | O=C1Nc2cc(Cl)ccc2/C1=C\c1c(-c2ccc(F)cc2)nc2ccccn12 | – | – | – | GI50 (MCF7): 0.43 µM; GI50 (MDA-MB-231): 0.95 µM |
| 0.26 | COc1cc(C2=CN(C(N)=O)C(c3cn(C)c4ccc(Br)cc34)C2)cc(OC)c1OC (stereo unspecified) | 0.29 | 0.21 | 0.31 | – |

| Structure (SMILES) | IC50 (A549) [µM] | IC50 (MCF7) [µM] | IC50 (HeLa) [µM] | IC50 (HepG2) [µM] | other results |
| --- | --- | --- | --- | --- | --- |
| COc1cc(/C=N/NC(=O)c2cn(Cc3ccccc3)c3ccccc23)cc(OC)c1OC | 0.08 | 0.64 | – | 0.63 | IC50 [1]: 35.6 µM |
| COc1cc(C(=O)c2cccc3[nH]ccc23)cc([Se]C)c1OC | 0.004 | – | 0.004 | 0.004 | IC50 (RKO): 0.004 µM; IC50 (HCT-116): 0.004 µM; IC50 (MDA-MB-231): 0.004 µM |
